Publication PMC7827406, “Structure–Activity Relationship (SAR) Study of Spautin-1 to Entail the Discovery of Novel NEK4 Inhibitors” (International Journal of Molecular Sciences, 2021)
Read-outs that look alike come from different tables or passages of the source.

Columns and labels:
Assay in all cases: biochemical
MLCK(h) = target: T1, MLCK(h) (Homo sapiens, UniProt Q15746); parameters: Eurofins kinase panel, residual kinase activity (%) at 10 uM relative to DMSO
T1 construct: gene MYLK
Procedure: (§1) Eurofins performed a “Full KP Panel [Km ATP], KinaseProfile” which contains 429 radiometric kinase activity assays. The remaining kinase activity (%) was determined after treatment with the compounds at a concentration of 10 µM (Cfr. supporting information). Since we could not confirm the interaction between Spautin-1 analogues and USP13, a kinase screening was performed using a set of four compounds (Spautin-1 and three analogues) to discover off-targets and identify kinases that are potentially responsible for the reduction in cell viability observed in our screen (Table 2). The KINOMEscan from Eurofins was performed (see Table S1). This screen consists of a competitive binding assay in which the DNA-tagged kinase is incubated with one of the compounds in the presence of immobilized active site binding ligands. Binding of the compounds to the kinase hampers the binding of the kinase to the ligands and this inhibition was quantified by qPCR.

MAPK1(h) = target: T2, MAPK1(h) (Homo sapiens, UniProt P27361); parameters: Eurofins kinase panel, residual kinase activity (%) at 10 uM relative to DMSO
T2 construct: gene MAPK3
T2 sequence (P27361 whole entry): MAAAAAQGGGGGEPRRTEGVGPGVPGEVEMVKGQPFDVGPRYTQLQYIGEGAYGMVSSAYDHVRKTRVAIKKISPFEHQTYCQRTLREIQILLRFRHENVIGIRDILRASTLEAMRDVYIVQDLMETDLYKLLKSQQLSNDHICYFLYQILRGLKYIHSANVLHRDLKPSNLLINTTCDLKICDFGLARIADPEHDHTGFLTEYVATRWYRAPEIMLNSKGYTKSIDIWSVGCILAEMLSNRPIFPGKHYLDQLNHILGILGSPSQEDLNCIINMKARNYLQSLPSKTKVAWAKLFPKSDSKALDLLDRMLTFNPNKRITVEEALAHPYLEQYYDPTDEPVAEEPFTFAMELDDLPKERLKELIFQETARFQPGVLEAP
Procedure: as §1

MAPK2(m) = target: T3, MAPK2(m) (Mus musculus, UniProt P63085); parameters: Eurofins kinase panel, residual kinase activity (%) at 10 uM relative to DMSO
T3 construct: gene Mapk1
T3 sequence (P63085 whole entry): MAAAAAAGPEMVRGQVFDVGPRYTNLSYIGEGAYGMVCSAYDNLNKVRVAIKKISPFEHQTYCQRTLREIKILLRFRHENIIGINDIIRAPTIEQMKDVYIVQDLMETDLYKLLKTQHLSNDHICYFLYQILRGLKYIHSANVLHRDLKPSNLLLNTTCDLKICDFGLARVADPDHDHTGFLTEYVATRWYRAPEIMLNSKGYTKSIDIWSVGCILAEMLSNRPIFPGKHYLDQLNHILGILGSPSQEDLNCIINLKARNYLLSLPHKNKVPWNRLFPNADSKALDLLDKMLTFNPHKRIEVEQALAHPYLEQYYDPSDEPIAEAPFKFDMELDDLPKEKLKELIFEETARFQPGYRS
Procedure: as §1

ACTR2(h) = target: T4, ACTR2(h) (Homo sapiens, UniProt P27037); parameters: Eurofins kinase panel, residual kinase activity (%) at 10 uM relative to DMSO
T4 construct: gene ACVR2A
T4 sequence (P27037 whole entry): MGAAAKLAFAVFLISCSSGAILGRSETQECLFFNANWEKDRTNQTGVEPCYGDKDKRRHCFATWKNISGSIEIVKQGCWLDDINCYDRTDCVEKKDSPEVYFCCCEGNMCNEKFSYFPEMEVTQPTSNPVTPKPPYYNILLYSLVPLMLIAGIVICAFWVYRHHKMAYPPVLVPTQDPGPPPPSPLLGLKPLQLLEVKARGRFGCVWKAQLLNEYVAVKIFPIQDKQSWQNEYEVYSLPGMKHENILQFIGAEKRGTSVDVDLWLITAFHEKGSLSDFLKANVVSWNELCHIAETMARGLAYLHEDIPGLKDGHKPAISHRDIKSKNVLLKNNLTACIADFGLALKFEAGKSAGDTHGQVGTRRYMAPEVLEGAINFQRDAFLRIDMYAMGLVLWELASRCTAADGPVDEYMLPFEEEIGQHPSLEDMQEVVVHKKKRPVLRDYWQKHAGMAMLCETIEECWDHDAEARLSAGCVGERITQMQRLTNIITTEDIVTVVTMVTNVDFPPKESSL
Procedure: as §1

MAPK2(h) = target: T5, MAPK2(h) (Homo sapiens, UniProt P28482); parameters: Eurofins kinase panel, residual kinase activity (%) at 10 uM relative to DMSO
T5 construct: gene MAPK1
T5 sequence (P28482 whole entry): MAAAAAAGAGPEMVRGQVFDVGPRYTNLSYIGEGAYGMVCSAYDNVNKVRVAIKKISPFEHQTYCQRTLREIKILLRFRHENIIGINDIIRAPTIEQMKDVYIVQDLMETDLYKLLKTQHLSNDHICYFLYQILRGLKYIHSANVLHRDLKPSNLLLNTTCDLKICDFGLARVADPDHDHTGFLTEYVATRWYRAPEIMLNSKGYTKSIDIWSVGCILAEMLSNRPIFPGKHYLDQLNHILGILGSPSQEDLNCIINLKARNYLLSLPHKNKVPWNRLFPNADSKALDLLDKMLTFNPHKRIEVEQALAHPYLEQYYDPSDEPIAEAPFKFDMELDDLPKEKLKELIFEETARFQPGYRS
Procedure: as §1

CDKL3(h) = CDKL3(h) (Homo sapiens, UniProt Q8IVW4); parameters: Eurofins KinaseProfiler full panel at Km ATP, residual kinase activity (%) relative to DMSO
Sequence of CDKL3(h) (Q8IVW4 whole entry): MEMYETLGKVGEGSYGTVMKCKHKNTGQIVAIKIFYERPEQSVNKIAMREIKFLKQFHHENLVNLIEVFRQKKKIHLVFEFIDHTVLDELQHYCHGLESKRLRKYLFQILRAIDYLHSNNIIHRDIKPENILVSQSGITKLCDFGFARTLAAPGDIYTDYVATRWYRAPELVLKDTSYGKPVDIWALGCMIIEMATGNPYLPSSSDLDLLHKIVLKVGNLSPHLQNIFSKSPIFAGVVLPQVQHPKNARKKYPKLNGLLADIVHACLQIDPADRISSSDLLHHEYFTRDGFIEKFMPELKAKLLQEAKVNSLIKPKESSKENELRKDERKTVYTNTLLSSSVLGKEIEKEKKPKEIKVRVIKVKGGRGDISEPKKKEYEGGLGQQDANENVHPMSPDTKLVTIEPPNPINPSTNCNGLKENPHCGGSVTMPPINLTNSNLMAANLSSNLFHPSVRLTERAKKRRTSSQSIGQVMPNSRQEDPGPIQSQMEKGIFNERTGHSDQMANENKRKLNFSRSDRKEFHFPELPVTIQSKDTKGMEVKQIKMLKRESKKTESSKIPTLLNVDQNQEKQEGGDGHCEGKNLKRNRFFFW
Procedure: (§2) Eurofins performed a “Full KP Panel [Km ATP], KinaseProfile” which contains 429 radiometric kinase activity assays. The remaining kinase activity (%) was determined after treatment with the compounds at a concentration of 10 µM (Cfr. supporting information). Since we could not confirm the interaction between Spautin-1 analogues and USP13, a kinase screening was performed using a set of four compounds (Spautin-1 and three analogues) to discover off-targets and identify kinases that are potentially responsible for the reduction in cell viability observed in our screen (Table 2). The KINOMEscan from Eurofins was performed (see Table S1). This screen consists of a competitive binding assay in which the DNA-tagged kinase is incubated with one of the compounds in the presence of immobilized active site binding ligands. Binding of the compounds to the kinase hampers the binding of the kinase to the ligands and this inhibition was quantified by qPCR. The residual kinase activity, which represents the percentage of kinase attached to the immobilized ligands, was determined for 428 kinases at a standard screening concentration of 10 µM of the compounds dissolved in DMSO [61].

CLK2(h) = CLK2(h) (Homo sapiens, UniProt P49760); parameters: Eurofins KinaseProfiler full panel at Km ATP, residual kinase activity (%) relative to DMSO
Sequence of CLK2(h) (P49760 whole entry): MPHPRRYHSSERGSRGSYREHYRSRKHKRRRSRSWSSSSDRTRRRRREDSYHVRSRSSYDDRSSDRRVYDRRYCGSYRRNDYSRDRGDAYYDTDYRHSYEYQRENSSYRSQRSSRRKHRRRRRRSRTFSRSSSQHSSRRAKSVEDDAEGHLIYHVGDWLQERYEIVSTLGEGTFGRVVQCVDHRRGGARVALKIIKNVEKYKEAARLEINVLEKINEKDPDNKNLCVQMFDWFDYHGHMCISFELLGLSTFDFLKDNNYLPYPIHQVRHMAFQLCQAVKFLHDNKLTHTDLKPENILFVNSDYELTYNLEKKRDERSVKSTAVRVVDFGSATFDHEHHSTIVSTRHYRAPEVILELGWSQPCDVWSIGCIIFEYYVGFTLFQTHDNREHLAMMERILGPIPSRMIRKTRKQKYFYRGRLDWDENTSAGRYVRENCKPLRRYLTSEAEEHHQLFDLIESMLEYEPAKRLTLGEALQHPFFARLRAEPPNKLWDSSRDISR
Procedure: as §2

PEK(h) = target: T6, PEK(h) (Homo sapiens, UniProt Q9NZJ5); parameters: Eurofins KinaseProfiler full panel at Km ATP, residual kinase activity (%) relative to DMSO
T6 construct: gene EIF2AK3
T6 sequence (Q9NZJ5 1-1116): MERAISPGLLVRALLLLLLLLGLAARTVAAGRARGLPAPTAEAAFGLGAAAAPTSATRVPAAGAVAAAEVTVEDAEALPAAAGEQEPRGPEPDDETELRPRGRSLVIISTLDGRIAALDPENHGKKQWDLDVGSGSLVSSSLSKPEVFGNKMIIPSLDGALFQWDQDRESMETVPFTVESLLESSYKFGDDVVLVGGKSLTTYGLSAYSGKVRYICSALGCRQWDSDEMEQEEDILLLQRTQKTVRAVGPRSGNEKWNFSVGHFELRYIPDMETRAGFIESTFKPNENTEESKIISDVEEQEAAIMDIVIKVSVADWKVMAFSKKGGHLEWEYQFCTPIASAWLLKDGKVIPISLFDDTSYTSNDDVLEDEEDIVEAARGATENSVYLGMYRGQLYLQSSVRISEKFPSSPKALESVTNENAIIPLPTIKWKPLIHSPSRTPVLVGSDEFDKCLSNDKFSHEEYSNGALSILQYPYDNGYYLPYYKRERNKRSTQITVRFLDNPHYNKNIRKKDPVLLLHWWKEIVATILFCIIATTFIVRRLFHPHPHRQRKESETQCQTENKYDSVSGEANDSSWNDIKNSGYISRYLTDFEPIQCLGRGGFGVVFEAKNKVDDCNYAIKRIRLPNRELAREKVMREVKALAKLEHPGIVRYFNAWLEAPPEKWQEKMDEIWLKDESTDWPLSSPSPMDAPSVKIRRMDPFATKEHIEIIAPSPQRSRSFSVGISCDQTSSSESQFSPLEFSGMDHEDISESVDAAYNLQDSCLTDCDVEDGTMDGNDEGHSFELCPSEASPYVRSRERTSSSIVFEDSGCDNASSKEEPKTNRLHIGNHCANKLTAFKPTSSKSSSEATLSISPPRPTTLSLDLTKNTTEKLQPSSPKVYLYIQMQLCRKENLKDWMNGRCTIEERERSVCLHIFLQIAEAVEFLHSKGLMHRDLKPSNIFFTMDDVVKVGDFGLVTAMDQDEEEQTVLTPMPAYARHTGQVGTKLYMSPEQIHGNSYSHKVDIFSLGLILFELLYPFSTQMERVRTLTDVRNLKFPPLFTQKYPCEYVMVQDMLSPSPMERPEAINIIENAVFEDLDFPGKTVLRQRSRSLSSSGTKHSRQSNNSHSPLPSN
Procedure: as §2

[1] = read-out: Residual activity (%) Spautin-1
[2] = read-out: Residual activity (%) Spautin-1 5aa
[3] = read-out: Residual activity (%) 5as
[4] = read-out: Residual activity (%) 5at
[5] = read-out: Residual activity (%) 5ay

T1 sequence (Q15746 whole entry): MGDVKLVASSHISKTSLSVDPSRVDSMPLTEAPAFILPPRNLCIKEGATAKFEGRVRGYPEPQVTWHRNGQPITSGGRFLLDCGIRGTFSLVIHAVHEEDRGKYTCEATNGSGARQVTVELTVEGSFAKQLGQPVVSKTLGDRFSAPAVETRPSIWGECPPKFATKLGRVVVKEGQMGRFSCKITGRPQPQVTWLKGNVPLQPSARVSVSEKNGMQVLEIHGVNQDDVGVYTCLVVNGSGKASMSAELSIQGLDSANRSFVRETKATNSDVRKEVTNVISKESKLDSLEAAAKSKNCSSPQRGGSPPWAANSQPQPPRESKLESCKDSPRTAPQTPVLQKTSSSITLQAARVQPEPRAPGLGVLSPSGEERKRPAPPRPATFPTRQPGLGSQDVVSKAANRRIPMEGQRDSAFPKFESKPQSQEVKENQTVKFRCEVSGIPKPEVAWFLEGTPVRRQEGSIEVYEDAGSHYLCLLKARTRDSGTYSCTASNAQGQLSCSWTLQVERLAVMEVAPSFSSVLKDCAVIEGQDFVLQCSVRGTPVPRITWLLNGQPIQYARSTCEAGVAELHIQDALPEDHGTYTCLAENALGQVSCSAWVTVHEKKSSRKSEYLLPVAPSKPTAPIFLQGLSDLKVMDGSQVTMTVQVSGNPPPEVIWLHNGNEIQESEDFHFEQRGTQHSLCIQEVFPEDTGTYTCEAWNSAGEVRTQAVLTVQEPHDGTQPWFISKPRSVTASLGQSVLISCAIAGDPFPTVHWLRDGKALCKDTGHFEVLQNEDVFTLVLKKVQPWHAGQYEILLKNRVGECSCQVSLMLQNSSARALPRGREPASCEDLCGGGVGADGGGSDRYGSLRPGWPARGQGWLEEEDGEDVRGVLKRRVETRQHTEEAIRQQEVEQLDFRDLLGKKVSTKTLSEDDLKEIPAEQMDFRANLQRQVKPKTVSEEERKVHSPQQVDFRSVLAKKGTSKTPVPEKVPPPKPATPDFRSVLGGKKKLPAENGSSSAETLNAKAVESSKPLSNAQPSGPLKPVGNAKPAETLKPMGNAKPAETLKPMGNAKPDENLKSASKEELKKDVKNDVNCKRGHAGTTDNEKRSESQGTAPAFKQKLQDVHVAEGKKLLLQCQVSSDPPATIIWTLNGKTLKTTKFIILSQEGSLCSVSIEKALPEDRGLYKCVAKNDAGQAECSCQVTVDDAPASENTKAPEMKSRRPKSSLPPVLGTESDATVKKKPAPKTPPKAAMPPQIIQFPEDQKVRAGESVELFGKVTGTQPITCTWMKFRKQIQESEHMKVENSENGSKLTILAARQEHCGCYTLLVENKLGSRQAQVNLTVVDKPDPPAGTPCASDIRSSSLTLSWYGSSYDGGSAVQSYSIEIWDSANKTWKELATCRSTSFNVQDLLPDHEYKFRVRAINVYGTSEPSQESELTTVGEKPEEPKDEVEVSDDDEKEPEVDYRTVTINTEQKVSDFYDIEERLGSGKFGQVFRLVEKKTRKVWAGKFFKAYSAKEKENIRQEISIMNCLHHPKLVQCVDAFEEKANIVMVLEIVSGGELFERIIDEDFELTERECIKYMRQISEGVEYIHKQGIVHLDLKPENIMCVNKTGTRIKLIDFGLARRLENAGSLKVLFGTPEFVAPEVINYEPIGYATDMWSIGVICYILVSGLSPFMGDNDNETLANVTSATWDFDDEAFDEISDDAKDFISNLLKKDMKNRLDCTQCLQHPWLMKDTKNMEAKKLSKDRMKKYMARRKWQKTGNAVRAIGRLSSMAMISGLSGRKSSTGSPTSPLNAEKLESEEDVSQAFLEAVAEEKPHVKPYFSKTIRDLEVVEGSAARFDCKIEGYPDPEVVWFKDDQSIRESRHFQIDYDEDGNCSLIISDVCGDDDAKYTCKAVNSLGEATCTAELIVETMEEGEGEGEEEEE

Fc1ccc(CNc2ncnc3ccc(F)cc23)cc1 [5aa, 6-Fluoro-N-(4-fluorobenzyl)-4-Quinazolinamine]
remaining activity at 10 µM (MLCK(h); [1]): 83%
remaining activity at 10 µM (MAPK1(h); [1]): 96%
remaining activity at 10 µM (MAPK2(m); [1]): 104%
remaining activity at 10 µM (ACTR2(h); [1]): 92%
remaining activity at 10 µM (MAPK2(h); [1]): 96%
remaining activity at 10 µM (CDKL3(h); [2]): 77%
remaining activity at 10 µM (CLK2(h); [2]): 47%
remaining activity at 10 µM (PEK(h); [2]): 105%

Fc1ccc(CCNc2ncnc3ccc(F)cc23)cc1 [5as, 6-Fluoro-N-[2-(4-Fluorophenyl)Ethyl]-4-Quinazolinamine]
remaining activity at 10 µM (MLCK(h); [3]): 88%
remaining activity at 10 µM (MAPK1(h); [3]): 93%
remaining activity at 10 µM (MAPK2(m); [3]): 105%
remaining activity at 10 µM (ACTR2(h); [3]): 83%
remaining activity at 10 µM (MAPK2(h); [3]): 87%
remaining activity at 10 µM (CDKL3(h); [3]): 65%
remaining activity at 10 µM (CLK2(h); [3]): 53%
remaining activity at 10 µM (PEK(h); [3]): 112%

Fc1ccc2ncnc(NCCc3ccc(Cl)cc3)c2c1 [5at, N-[2-(4-Chlorophenyl)Ethyl]-6-Fluoro-4-Quinazolinamine]
remaining activity at 10 µM (MLCK(h); [4]): 86%
remaining activity at 10 µM (MAPK1(h); [4]): 114%
remaining activity at 10 µM (MAPK2(m); [4]): 91%
remaining activity at 10 µM (ACTR2(h); [4]): 97%
remaining activity at 10 µM (MAPK2(h); [4]): 83%
remaining activity at 10 µM (CDKL3(h); [4]): 71%
remaining activity at 10 µM (CLK2(h); [4]): 60%
remaining activity at 10 µM (PEK(h); [4]): 110%

COc1ccc2ncnc(Nc3cccc(F)c3)c2c1 [5ay, N-(3-Fluorophenyl)-6-Methoxy-4-Quinazolinamine]
remaining activity at 10 µM (MLCK(h); [5]): 69%
remaining activity at 10 µM (MAPK1(h); [5]): 84%
remaining activity at 10 µM (MAPK2(m); [5]): 118%
remaining activity at 10 µM (ACTR2(h); [5]): 85%
remaining activity at 10 µM (MAPK2(h); [5]): 100%
remaining activity at 10 µM (CDKL3(h); [5]): 29%
remaining activity at 10 µM (CLK2(h); [5]): 43%
remaining activity at 10 µM (PEK(h); [5]): 108%
